Literature values in patent publication US20210299068A1, “ANTIMICROBIAL COMPOSITIONS COMPRISING CHLORHEXIDINE” (3M INNOVATIVE PROPERTIES COMPANY, priority 2018, published 2021).

Conditions: at neutral pH

Formation constant for the complex with calcium: 10^6
Structure (SMILES): O=C([O-])CN(CCO)CCN(CC(=O)[O-])CC(=O)[O-].[Na+].[Na+].[Na+] [HEDTA.Na3, N-(2-Hydroxyethyl)ethylenediaminetriacetic acid trisodium salt]
